Data on ten compounds can be found in patent US7888368B2, “Treatment of drug-resistant tumors” (Sigma-Tau Industrie Farmaceutiche Riunite S.p.A., priority 2005, dated 2011).

Experiment [1] concerns A2780/ADR multidrug-resistant ovarian carcinoma. As to the kind of experiment: Antitumor activity on A2780/ADR resistant tumor xenograft. The note with it: A2780/ADR s.c. in nude athymic mice, q4d × 4. Type of experiment: in vivo, human. An excerpt:
(§1) Using a q4d dosing schedule repeated for 3-5 doses, ST1968 was compared to irinotecan or other known chemotherapeutic agents against different human tumor models (Table 2), including A2780/ADR multidrug-resistant ovarian carcinoma which overexpresses PgP glycoprotein, A2780/DDP platinum-resistant ovarian carcinoma and DU145RC1 camptothecin-resistant prostate carcinoma which was previously selected by continuous exposure of the parental sensitive DU145 to 9-nitro-camptothecin (Urasaki Y et al., 2001, Cancer Res 61, 1964-9). On this selected tumor cell line, a Topoisomerase I mutation which changes the arginine 364 codon to histidine (R364H) was found. The 364H point mutation was located in the highly conserved core, a region of Topoisomerase I within the Topoisomerase I amino acid residues 361-364 critical for camptothecin resistance. Moreover, this mutation site is close to the catalytic tyrosine. The resistance of the Topoisomerase I/R364H is probably attributable to the loss of a critical H-bond between R364 and camptothecin E-ring lactone moiety.
(§2) Exponentially growing tumor cells were injected s.c. into nude athymic mice. The number of tumor cells was previously chosen by a growth curve. Mice were housed inside cages of makrolon (33.2×15×13 cm) with stainless steel cover-feed and sterilized and dust-free bedding cobs. Animals were housed under a light-dark cycle, keeping temperature and humidity constant. Parameters of the animal rooms were assessed as follows: 22±2° C. temperature, 55±10% relative humidity, about 15-20 filtered air changes/hour and 12 hour circadian cycle of artificial light (7 a.m., 7 p.m.). At request, the environmental conditions were monitored and the data are retained in Animal Housing Archives. Drinking water was supplied ad libitum. Each mouse was offered daily a complete pellet diet (GLP 4RF21, Mucedola) throughout the study. The analytical certificates of animal food and water are retained at Sigma-Tau premises. All animals were weighed before starting the experiment and were subdivided into the different dosage groups. Each cage was identified by a paper tag indicating: cage number, group, date of tumor injection, starting date of treatment, name of the test item, dose and route of administration, date of sacrifice.
(§3) Tumor growth was followed by biweekly measurements of tumor diameters with a Vernier caliper. Tumor volume (TV, mm^3) was calculated as: [length (mm)×width (mm)^2]/2, where the width and the length are the shortest and the longest diameters of each tumor, respectively.
(§4) The efficacy of the drug treatment was assessed as: a) Tumor volume inhibition (TVI %) in treated versus control mice, calculated as: 100−[(mean tumor volume of treated animals/mean tumor volume of control animals)×100]; b) LCK (log10 cell kill) calculated by the formula LCK=(T−C)/3.32×DT, where T and C are the mean times (days) required for treated (T) and control (C) tumor, respectively, to reach 1000 mm^3, and DT is the doubling time of control tumors; CR meaning no evidence of tumor lasting for at least 10 days.

Experiment [2] concerns A2780/DDP platinum-resistant ovarian carcinoma. As to the kind of experiment: Antitumor activity on A2780/DDP resistant tumor xenograft. Type of experiment: in vivo, human. The note with it: A2780/DDP s.c. in nude athymic mice, q4d × 3.
Description: as §1, §2, §3, §4

Experiment [3] has as its target T1, human DNA topoisomerase I mutant YCpGAL1htop1K720E (Homo sapiens, UniProt P11387, K720E).
T1 sequence (P11387 1-765 K720E): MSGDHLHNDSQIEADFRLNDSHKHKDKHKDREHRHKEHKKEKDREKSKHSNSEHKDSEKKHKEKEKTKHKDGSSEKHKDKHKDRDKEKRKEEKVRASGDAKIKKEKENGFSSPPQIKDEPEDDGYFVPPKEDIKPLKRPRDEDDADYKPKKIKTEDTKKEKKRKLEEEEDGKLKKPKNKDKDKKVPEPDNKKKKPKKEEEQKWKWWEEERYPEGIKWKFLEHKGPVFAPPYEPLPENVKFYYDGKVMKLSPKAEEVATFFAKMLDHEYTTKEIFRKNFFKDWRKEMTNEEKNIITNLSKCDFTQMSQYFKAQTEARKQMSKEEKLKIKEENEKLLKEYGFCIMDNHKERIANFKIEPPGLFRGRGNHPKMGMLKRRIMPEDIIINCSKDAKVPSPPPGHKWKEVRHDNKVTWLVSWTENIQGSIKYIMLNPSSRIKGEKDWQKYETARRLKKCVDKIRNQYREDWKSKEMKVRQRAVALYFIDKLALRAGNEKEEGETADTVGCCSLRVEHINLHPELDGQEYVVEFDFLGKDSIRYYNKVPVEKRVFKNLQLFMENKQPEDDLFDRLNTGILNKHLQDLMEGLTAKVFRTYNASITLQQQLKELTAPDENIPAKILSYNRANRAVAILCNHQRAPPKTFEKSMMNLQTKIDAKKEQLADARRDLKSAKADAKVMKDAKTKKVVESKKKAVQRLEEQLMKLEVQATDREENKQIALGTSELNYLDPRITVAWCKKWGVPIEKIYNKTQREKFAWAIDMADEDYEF
As to the kind of experiment: In vivo spot test, yeast transformed with human DNA topoisomerase I mutant K720E. It is filed as cell-based. The note with it: Saccharomyces cerevisiae EKY2, 2% galactose, drug 45 μM, 48-72 h at 30° C.

For experiment [4], the system named is DU145RC1 camptothecin-resistant prostate carcinoma. The experiment in a line: Antitumor activity on DU145RC1 resistant tumor xenograft. Type of experiment: in vivo, human. The note with it: DU145 RC1 s.c. in nude athymic mice, q4d × 5.
Description: as §1, §2, §3, §4

The test system of experiment [5] is DU145 sensitive prostate carcinoma. As to the kind of experiment: Antitumor activity on DU145 tumor xenograft. Type of experiment: in vivo, human. The note with it: DU145 s.c. in nude athymic mice, 35 iv mg/kg, q4d × 4. The source says:
Using a q4d dosing schedule repeated for 3-5 doses, ST1968 was compared to irinotecan or other known chemotherapeutic agents against different human tumor models (Table 2), including A2780/ADR multidrug-resistant ovarian carcinoma which overexpresses PgP glycoprotein, A2780/DDP platinum-resistant ovarian carcinoma and DU145RC1 camptothecin-resistant prostate carcinoma which was previously selected by continuous exposure of the parental sensitive DU145 to 9-nitro-camptothecin (Urasaki Y et al., 2001, Cancer Res 61, 1964-9). On this selected tumor cell line, a Topoisomerase I mutation which changes the arginine 364 codon to histidine (R364H) was found. […]
Exponentially growing tumor cells were injected s.c. into nude athymic mice. […] Parameters of the animal rooms were assessed as follows: 22±2° C. temperature, 55±10% relative humidity, about 15-20 filtered air changes/hour and 12 hour circadian cycle of artificial light (7 a.m., 7 p.m.). At request, the environmental conditions were monitored and the data are retained in Animal Housing Archives. […]
Tumor growth was followed by biweekly measurements of tumor diameters with a Vernier caliper. Tumor volume (TV, mm^3) was calculated as: [length (mm)×width (mm)^2]/2, where the width and the length are the shortest and the longest diameters of each tumor, respectively. […]

The target of experiment [6] is T2, human DNA topoisomerase I wild type (YCpGAL1 hTOP1) (Homo sapiens, UniProt P11387).
T2 sequence (P11387 1-765): T1 sequence (P11387 1-765 K720E) with E720K
As to the kind of experiment: In vivo spot test, yeast transformed with human DNA topoisomerase I wild type. The note with it: Saccharomyces cerevisiae EKY2, 2% galactose, drug 45 μM, 48-72 h at 30° C.
Description: Before to transform the yeast cells with DNA (lithium acetate method), yeast was grown on solid medium. It was streaked on plates of 90 mm containing sterile solid medium (YPDA) (10 g yeast, 20 g peptone, 20 g dextrose, 0.7 g adenine, 20 g glucose, 20 g agar for liter). Colonies were grown after 48 h at 30° C. One day before the transformation, a single yeast colony of the strain to be transformed was inoculated in 5 ml of steril liquid YPDA (the medium above mentioned without agar). The colony was grown to saturation overnight under stirring at 30° C. The day after, 5 ml of saturated culture was diluted in 100 ml of YPDA liquid medium and grown at 30° C. to reach an optical density of 1.0 at 600 nm. Cells were centrifuged for 5 min at 4000×g at room temperature and the pellet was resuspended in 25 ml of a solution (T/E) containing 10 mM Tris-EDTA pH7.5, 1 mM EDTA and 100 mM lithium acetate. The yeast suspension was centrifuged for 5 min at 4000×g at room temperature. The pellet was resuspended in a fresh solution above described (about 500 μl) to obtain 2×10^9 cells/ml. To have the transformation, 200 μg of DNA carrier were mixed with 1 μg transforming DNA and 200 μl yeast cells in an eppendorf. Subsequently, 1.2 ml of a solution TE/lithium acetate containing 40% PEG were added and the yeast suspension was kept under stirring for 30 min at 30° C. A heat shock was performed by keeping the yeast suspension at 42° C. for 15 min. Subsequently it was centrifuged 5 sec at room temperature. Yeast was resuspended in TE buffer and spread up onto CM (complete minimal) dropout medium on plates. CM was previously prepared with 1.3 g of dropout powder containing different aminoacids without uracil, 1.7 g yeast nitrogen base without aminoacids and ammonium sulfate, 5 g ammonium sulfate, 20 g glucose and 20 of agar for liter). The plates were incubated at 30° C. until transformants appear.
To perform the in vivo spot test, the transformants were inoculated in 5 ml of steril liquid CM medium and grown overnight under stirring at 30° C. The day after a dilution of the yeast colonies was made to reach an optical density at 600 nm of 0.3. Starting from this first dilution, other serial dilutions (1:10, 1:100, 1:1000) were performed in plates of 96 well. 5 μl of each dilution were put on plates of 90 mm containing solid CM medium. For the control samples, 2% glucose or 2% galactose were added; for the camptothecin-derivatives treated samples, 2% galactose and the drugs at a concentration 45 μM were added. The yeast colonies were incubated at 30° C. for 48-72 h and analyzed macroscopically.

Substitutions are numbered along the chain they refer to.

As to `CC(=O)O[C@H]1C(=O)[C@@]2(C)[C@H]([C@H](OC(=O)c3ccccc3)[C@]3(O)C[C@H](OC(=O)[C@H](O)[C@@H](NC(=O)c4ccccc4)c4ccccc4)C(C)=C1C3(C)C)[C@]1(OC(C)=O)CO[C@@H]1C[C@@H]2O` [paclitaxel], in experiment [1] (16 mg/kg), the CR is 0/8, the LCK was found to be 0.1 and the TVI % came to 16%. In experiment [2] (15 mg/kg), the CR is given as 6/6, the LCK is on record as 1.4 and the TVI % was 94%.
Regarding `CC[C@@]1(O)C(=O)OCc2c1cc1n(c2=O)Cc2c-1nc1ccccc1c2/C=N\OCCN` [ST1968, 7-(2-amino)ethoxyiminomethylcamptothecin], the “growth of the transformed YCpGAL1htop1K720E mutant” value in experiment [3] was “able to inhibit the growth”. The CR was 6/8 in experiment [1] (15 mg/kg), 8/8 in experiment [2] (15 mg/kg), 7/7 in experiment [2] (30 mg/kg) and 0/8 in experiment [4] (30 mg/kg). The LCK is 2.2 in experiment [1] (15 mg/kg); 1.9 in experiment [1] (30 mg/kg); 6.3 in experiment [2] (15 mg/kg); >>6.3 in experiment [2] (30 mg/kg); 1.3 in experiment [4] (30 mg/kg); 0.65 in experiment [5]. Further, the TVI % in experiment [1] (15 mg/kg) was determined as 99%; in experiment [1] (30 mg/kg) it was 100%; in experiment [2] (15 mg/kg), 100%; in experiment [2] (30 mg/kg), 100%; in experiment [4] (30 mg/kg), 65%; in experiment [5], 66%. The “growth of the yeasts transformed with the DNA topoisomerase I wild type” value (“growth of the yeasts transformed” for short) in experiment [6] is “inhibit the growth”.
Regarding `CCC1(O)C(=O)OCc2c1cc1n(c2=O)Cc2c-1nc1ccccc1c2C=NOCc1ccc(N)cc1` (stereo not drawn) [ST1976, 7-(4-amino)benzyloxyiminomethylcamptothecin], the “growth of the yeasts transformed” value in experiment [6] is listed as “inhibit the growth”.
On to `CC[C@@]1(O)C(=O)OCc2c1cc1n(c2=O)Cc2cc3c(CN(C)C)c(O)ccc3nc2-1` [topotecan], for which, in experiment [1] (10 mg/kg), the CR is reported as 1/6, the LCK worked out at 1.1 and the TVI % worked out at 85%. Besides, in experiment [2] (10 mg/kg), the CR was 1/8, the LCK amounted to 1.2 and the TVI % was found to be 93%.
For the compound `CCC1(O)C(=O)OCc2c1cc1n(c2=O)Cc2c-1nc1ccccc1c2C=NOCCN1CCOCC1` (stereo not drawn) [ST1600, 7-[2-(4-morpholinyl)ethoxy]iminomethylcamptothecin], in experiment [6], the “growth of the yeasts transformed” value is recorded as “inhibit the growth”.
For `CCC1(O)C(=O)OCc2c1cc1n(c2=O)Cc2c-1nc1ccccc1c2C=NOCCN(C)C` (stereo not drawn) [ST1969, 7-(2-dimethylamino)ethoxyiminomethylcamptothecin], in experiment [3], the “growth of the transformed YCpGAL1htop1K720E mutant” value is reported as “able to inhibit the growth”. In experiment [6], the “growth of the yeasts transformed” value is “inhibit the growth”.
Take `CCc1c2c(nc3ccc(OC(=O)N4CCC(N5CCCCC5)CC4)cc13)-c1cc3c(c(=O)n1C2)COC(=O)[C@]3(O)CC` [irinotecan]: in experiment [4] (60 mg/kg), the CR is 0/8, the LCK is on record as 0.8 and the TVI % was 45%.
Regarding `CC[C@@]1(O)C(=O)OCc2c1cc1n(c2=O)Cc2c-1nc1ccccc1c2/C=N/OC(C)(C)C` [ST1481, 7-t-butoxyiminomethylcamptothecin], in experiment [6], the “growth of the yeasts transformed” value was “inhibit the growth”.
Consider `CC[C@@]1(O)C(=O)OCc2c1cc1n(c2=O)Cc2cc3ccccc3nc2-1` [camptothecin], for which the “growth of the yeasts transformed” value in experiment [6] is “inhibit the growth”.
As for `N.N.O=C([O-])C1(C(=O)[O-])CCC1.[Pt+2]` [carboplatin], in experiment [1] (33.3 mg/kg), the CR was 0/7, the LCK is on record as 0.6 and the TVI % is 62%. Moreover, in experiment [2] (25 mg/kg), the CR was 0/8, the LCK came to 0.5 and the TVI % was determined as 26%.
